Assay type in all cases: physicochemical
Data set [1] is described as follows: Thermodynamic stability / solvent competition among crystal forms. As to conditions: for thermodynamic status among anhydrate crystal forms: temperature below 50° C. On the procedure:
After filtration by a needle filter, the filtrate was transferred to 1.5 mL vial. To the vial was added 5 mg of Crystal Form V and VI and the resulting suspensions were shaken for a while at the target temperatures. After centrifugation, the obtained solid was dried at 40° C. by vacuum overnight and then examined by XRPD to identify changes among different crystal forms.
With different solvents at corresponding temperatures shown in the table below, Crystal Form VIII was dissolved until saturated respectively. After filtration by a needle filter, the filtrate was transferred to 1.5 mL vial. To the vial was added 5 mg of Crystal Form III, V and IX and the resulting suspensions were shaken for a while at the target temperatures. After centrifugation, the obtained solid was dried at 40° C. by vacuum overnight and then examined by XRPD to identify changes among different crystal forms.

Data set [2] in a line: Physical stability study of crystal forms (XRPD). The conditions noted are these: 25° C./60% RH and 40° C./75% RH (long-term and accelerated), 2 weeks. On the procedure:
About 10 mg of Crystal Forms II, V and VI were added into 1.5 mL vial respectively which were then placed at the conditions of 25° C./60% RH and 40° C./75% RH. The solid in the vials was examined by XRPD at the corresponding time points.

A short description of data set [3]: Water activity study (competition of crystal forms). On the procedure:
Crystal Form VIII was dissolved in solvents with different water activity shown in the table below and then filtered by a needle filter to prepare a saturated solution. After the filtrate was transferred into a 1.5 mL vial, 2 mg of Crystal Form I, II, VIII, X and XI were added respectively and the resulting suspensions were shaken for a while at the target temperatures. After centrifugation, the solid obtained was air dried at ambient temperature (DMSO system was washed by MTBE) and then examined by XRPD to identify changes among different crystal forms.

Data set [4] can be described thus: Dynamic Vapor Sorption (DVS) hygroscopicity. As to conditions: for hygroscopicity classification: DVS; for hygroscopicity classification / mass increase (DVS): 25° C.; for change of crystal form after the DVS testing: after DVS cycle 0%-90%-0% RH; for mass increase (DVS): relative humidity from 0% to 80%. Here is the method: About 10 mg of sample was transferred to a DVS sample pan and the weight change as the humidity of the environment at 25° C. changes was recorded. The parameters of […] were set as follows: • Equilibrium dm/dt: 0.01%/min: (minimum: 10 min; maximum: 180 min); • Drying: 0% RH, 120 min; • RH (%) gradients: 10%; • RH (%) cycle: 0%-90%-0%. • Definition on Hygroscopicity

Data set [5] is described as follows: Relative humidity X-ray powder diffraction (RH-XRPD) of Crystal Form VIII. On the procedure: Based on the above data, Crystal Form VIII was most likely to be a hydrate. […] Therefore, Crystal Form VIII was further characterized by RH-XRPD to confirm the hydrate crystal Form and to have the knowledge of the crystal Form transformation with the different RH.
The parameters of XRPD used in the test were as follows: • Tube: Cu/K-Alpha (λ=1.54179Å); • Generator: Voltage: 40 KV; Current: 40 mA; • Scan Scope: 3-40 deg; • Scan Speed: 10 deg/min.
About 100 mg of compound was evenly distributed to form a layer in a sample holder and transferred to a RH control component in which the relative humidity was controlled and adjusted by the ratio of dry/wet N2 blown.

Data set [6] in a line: Long-term stability study of crystal form VIII. The conditions noted are these: for Water content / XRPD (crystal form): 25 ± 2° C./60 ± 5% RH. Here is the method: A long-term stability study has been carried out under condition of 25° C./60% RH for the crystal form VIII.

The values below come from patent US12534454B2, “Crystal forms of 5-fluoro-1-(4-fluoro-3-(4-(pyrimidin-2-yl)piperazine-1-carbonyl)benzyl)quinazoline-2,4(1H,3H)-dione and preparation thereof” (IMPACT THERAPEUTICS (SHANGHAI), INC, priority 2020, dated 2026).

Each structure is given as a SMILES string. Entries after “also recorded” stand apart in the source; their conditions may differ.

As to `O=C(c1cc(Cn2c(=O)[nH]c(=O)c3c(F)cccc32)ccc1F)N1CCN(c2ncccn2)CC1` [Crystal Form III, 5-fluoro-1-(4-fluoro-3-(4-(pyrimidin-2-yl)piperazine-1-carbonyl)benzyl)quinazoline-2,4(1H,3H)-dione], the “thermodynamic status among anhydrate crystal forms” value in data set [1] (anhydrous solvents) is “metastable”.

As for `O=C(c1cc(Cn2c(=O)[nH]c(=O)c3c(F)cccc32)ccc1F)N1CCN(c2ncccn2)CC1` [Crystal Form II, 5-fluoro-1-(4-fluoro-3-(4-(pyrimidin-2-yl)piperazine-1-carbonyl)benzyl)quinazoline-2,4(1H,3H)-dione], the “crystal form change within two weeks” value in data set [2] is on record as “no crystal form change; also recorded: not changed”. The “crystal form change in a low water activity” value in data set [3] (Aw<0.3) is reported as “changed to Crystal Form V”. Moreover, the hygroscopicity classification result in data set [4] is recorded as “hygroscopic”.

Turning to `O=C(c1cc(Cn2c(=O)[nH]c(=O)c3c(F)cccc32)ccc1F)N1CCN(c2ncccn2)CC1` [Crystal Form IX, 5-fluoro-1-(4-fluoro-3-(4-(pyrimidin-2-yl)piperazine-1-carbonyl)benzyl)quinazoline-2,4(1H,3H)-dione], the “thermodynamic status among anhydrate crystal forms” value in data set [1] (anhydrous solvents) is “metastable”.

Turning to `O=C(c1cc(Cn2c(=O)[nH]c(=O)c3c(F)cccc32)ccc1F)N1CCN(c2ncccn2)CC1` [Crystal Form V, 5-fluoro-1-(4-fluoro-3-(4-(pyrimidin-2-yl)piperazine-1-carbonyl)benzyl)quinazoline-2,4(1H,3H)-dione], in data set [2], the “crystal form change within two weeks” value was “no crystal form change; also recorded: not changed”. For the same compound, the “crystal form change in a high water activity” value in data set [3] (Aw>0.3) is “changed to Crystal Form II”. The “relative stability in the anhydrous solvents” value in data set [1] (anhydrous solvents, 25° C., 50° C. and 80° C.) is reported as “more stable than Crystal Form VI”. In data set [1] (anhydrous solvents), the “thermodynamic status among anhydrate crystal forms” value is “dominant”. In addition, the “crystal form change in the hydrous solvents” value in data set [1] is listed as “changed to Crystal Form II”. Moreover, in data set [4], the hygroscopicity classification entry is “slight hygroscopic”, the “change of crystal form after the DVS testing” value is reported as “no significant change” and the “mass increase (DVS)” value is “about 0.8%”.

Turning to `O=C(c1cc(Cn2c(=O)[nH]c(=O)c3c(F)cccc32)ccc1F)N1CCN(c2ncccn2)CC1` [Crystal Form “VIII”, 5-fluoro-1-(4-fluoro-3-(4-(pyrimidin-2-yl)piperazine-1-carbonyl)benzyl)quinazoline-2,4(1H,3H)-dione], the “crystal form after moisture absorption” value in data set [5] (5° C./75% RH, ambient temperature/75% RH, or 40° C./75% RH) is reported as “return to Crystal Form VIII”.

Consider `O=C(c1cc(Cn2c(=O)[nH]c(=O)c3c(F)cccc32)ccc1F)N1CCN(c2ncccn2)CC1` [Crystal Form VI, 5-fluoro-1-(4-fluoro-3-(4-(pyrimidin-2-yl)piperazine-1-carbonyl)benzyl)quinazoline-2,4(1H,3H)-dione], for which the “crystal form change within two weeks” value in data set [2] is “not changed”. Also, the “thermodynamic status among anhydrate crystal forms” value in data set [1] (anhydrous solvents) is “metastable”. Also, in data set [1], the “crystal form change in the hydrous solvents” value is given as “changed to Crystal Form II”. In addition, in data set [4], the hygroscopicity classification result was “slight hygroscopic”, the “change of crystal form after the DVS testing” value is on record as “no significant change” and the “mass increase (DVS)” value was “about 0.5%”.

Consider `O.O.O=C(c1cc(Cn2c(=O)[nH]c(=O)c3c(F)cccc32)ccc1F)N1CCN(c2ncccn2)CC1` [Crystal Form VIII, 5-fluoro-1-(4-fluoro-3-(4-(pyrimidin-2-yl)piperazine-1-carbonyl)benzyl)quinazoline-2,4(1H,3H)-dione dihydrate], for which the “Crystal Form (RH-XRPD), absorption process” value in data set [5] (0% RH, equilibrium 2 hour) was “XII”; in data set [5] (10% RH, equilibrium 2 hour) it was “XII”; in data set [5] (20% RH, equilibrium 2 hour) it was “XII”; in data set [5] (30% RH, equilibrium 2 hour) it was ““VIII””; in data set [5] (40% RH, equilibrium 2 hour) it was “VIII”; in data set [5] (50% RH, equilibrium 2 hour), “VIII”. For the same compound, the “Crystal Form (RH-XRPD), absorption process” value in data set [5] (60% RH, equilibrium 0.5 hour) was “VIII”; in data set [5] (70% RH, equilibrium 0.5 hour) it was “VIII”; in data set [5] (80% RH, equilibrium 0.5 hour), “VIII”; in data set [5] (90% RH, equilibrium 0.5 hour) it was “VIII”. Also, the “Crystal Form (RH-XRPD), desorption process” value in data set [5] (0% RH, equilibrium 2 hour) is “XII”; in data set [5] (10% RH, equilibrium 2 hour), “XII”; in data set [5] (20% RH, equilibrium 2 hour), “XII”; in data set [5] (30% RH, equilibrium 2 hour), “VIII”; in data set [5] (40% RH, equilibrium 2 hour), “VIII”; in data set [5] (50% RH, equilibrium 2 hour), “VIII”. The “Crystal Form (RH-XRPD), desorption process” value is “VIII” in data set [5] (60% RH, equilibrium 0.5 hour); “VIII” in data set [5] (70% RH, equilibrium 0.5 hour); “VIII” in data set [5] (80% RH, equilibrium 0.5 hour); “VIII” in data set [5] (90% RH, equilibrium 0.5 hour). In addition, in data set [5] (RH-XRPD and DVS, below it water is lost and the crystal form changes), the “relative humidity at which the crystal form is stable” value is “no less than 40 % RH”. In addition, the “change of water content in long-term stability” value in data set [6] (25° C./60% RH, up to 24 months) is reported as “no significant change”. Further, in data set [6] (25° C./60% RH, up to 24 months), the “crystal form change in long-term stability” value was “no crystal form change”. Further, the “long-term stability (in words)” value in data set [6] (25° C./60% RH, up to 24 months) was “stable”. Further, the Water content in data set [6] (9 months) worked out at 7.8%; in data set [6] (12 months) it was 7.7%; in data set [6] (18 months), 7.6%; in data set [6] (24 months) it was 7.4%; in data set [6] (Initial), 7.7%. Further, the “XRPD (crystal form)” value in data set [6] (12 months), in data set [6] (24 months) and in data set [6] (Initial) was “Form VIII” throughout. Besides, the “hygroscopicity (in words)” value in data set [4] is on record as “high hygroscopicity”.
